# Data taken from patent US20230302036A1, “COMPOSITIONS FOR TREATMENT OF SPINAL MUSCULAR ATROPHY” (priority 2020, published 2023).
# Oligonucleotides are written 5' to 3', each unit as a sugar letter and its base; * is a phosphorothioate linkage, no mark a phosphodiester; rarer units and linkages stand in square brackets, end groups in braces. Plain capitals give the bases only. e = 2'-O-(2-methoxyethyl) (MOE); [5mC] = 5-methylcytosine
# How the values were obtained:
# [1] = tested on: total RNAPII along the human SMN2 transgene; test: ChIP-qPCR of total RNAPII along the human SMN2 transgene in brain and liver of P7 SMA mice; type: in vivo, mouse; conditions: P7 SMA mice injected with ASO1
# Protocol: (§1) H3K9me2 (left) and total RNAPII (right) distribution along the human SMN2 transgene, assessed by ChIP-qPCR, in brain (FIG. 12A) and liver (FIG. 12B) of P7 SMA mice injected with ASO1. Vertical arrows indicate the approximate location of the target site for ASO1 on the pre-mRNA. Three independent immunoprecipitation replicates were conducted per experiment. Data are represented as mean ± S.D. (n = 3, *p < 0.05, two-tailed Student’s t test).
# (§2) Approximately 2×10^6 HEK293T cells per sample were treated for 10 min in 1% (v/v) formaldehyde at room temperature to crosslink protein-DNA complexes. Crosslinking was stopped with glycine at a final concentration of 125 mM. Cells were washed twice with cold PBS and swelled on ice for 10 min in 25 mM HEPES pH 8, 1.5 mM MgCl2, 10 mM KCl, 0.1% NP-40, 1 mM DTT and 1× protease inhibitor cocktail set III (Calbiochem). Following Dounce homogenization, the nuclei were collected and resuspended in 1 ml sonication buffer (50 mM HEPES pH 8, 140 mM NaCl, 1 mM EDTA, 0.1% sodium deoxycholate, 0.1% SDS and 1× protease inhibitor cocktail). DNA was sonicated in an ultrasonic bath (Bioruptor Diagenode) to an average length of 200-500 bp. After addition of 1% (v/v) Triton X-100, samples were centrifuged at 15,000 ×g. […] Immunoprecipitated DNA (1.5 µl) and serial dilutions of the 10% input DNA (1:4, 1:20, 1: 100, and 1:500) were analyzed by SYBR-Green real-time qPCR.
# [2] = tested on: H3K9me2 along the human SMN2 transgene; test: ChIP-qPCR of H3K9me2 along the human SMN2 transgene in brain and liver of P7 SMA mice; type: in vivo, mouse; conditions: P7 SMA mice injected with ASO1
# Protocol: as §1, §2
# [3] = tested on: H3K9me2 along SERF1A, MYOD, GAPDH; test: Specificity control ChIP-qPCR of H3K9me2 on SERF1A, MYOD and GAPDH in HEK293T cells; type: cell-based, human
# Protocol: FIGS. 6A-6D show antisense oligonucleotides and their effects on chromatin. […] Uppercase, exonic nucleotide sequence. Lowercase, intronic sequences. Upstream highlight, binding site for ASO1. Downstream highlight, binding site for ASO2. Levels of H3K9me2 deposition along small EDRK-rich factor 1A (SERF1A, upstream of SMN2) (FIG. 6B), Myoblast Determination Protein (MYOD) (FIG. 6C), and Glyceraldehyde 3-phosphate dehydrogenase (GAPDH) (FIG. 6D), were assessed by ChIP-qPCR in HEK293T cells. Data represented as mean ± S.D. (n = 4, *p < 0.05, two-tailed Student’s t test).
# as §2, with “cocktail).” for “cocktail). DNA was sonicated in an ultrasonic bath (Bioruptor Diagenode) to an average length of 200-500 bp. After addition of 1% (v/v) Triton X-100, samples were centrifuged at 15,000 ×g.”
# [4] = tested on: H3K27 trimethylation over the SMN2 gene; test: ChIP-qPCR of H3K27 trimethylation over the SMN2 gene in HEK293T cells; type: cell-based, human; conditions: ASO1 transfection
# Protocol: FIGS. 10A-10D show control experiments for the opposing roles of ASO1 on chromatin and splicing. […] Top: control Western blot for efficient expression of the c-Myc-SMN fusion protein encoded by plasmid pcDNA3.1+SMN1mycHIS (Addgene, cat.# 71687) using anti-tubulin (tub.) as loading control. Bottom: SMN2 E7 RT-PCR of cells co-transfected with ASO1 and plasmid. […] Distribution of these histone marks was assessed by ChIP-qPCR, with amplicons mapping near the numbered exons (E) and introns (i). Three independent immunoprecipitation replicates were conducted per experiment. Data are represented as mean ± S.D. (n = 5; in all cases p was much higher than 0.05, two-tailed Student’s t test). […] Top: control Western blot for efficient expression of the GFPRNaseH fusion protein encoded by plasmid pEGFP-RNASEH1 (Addgene, cat.# 108699), using anti-actin (act.) as loading control. Bottom: SMN2 E7 RT-PCR of cells co-transfected with ASO1 and the RNase H plasmid. […] Top: control Western blot for efficient AGO1 knockdown using anti-tubulin (tub.) as loading control. […]
# Approximately 2×10^6 HEK293T cells per sample were treated for 10 min in 1% (v/v) formaldehyde at room temperature to crosslink protein-DNA complexes. […] Immunoprecipitated DNA (1.5 µl) and serial dilutions of the 10% input DNA (1:4, 1:20, 1: 100, and 1:500) were analyzed by SYBR-Green real-time qPCR.
substance,measurement,setting,value
ASO1: 5′-ATTCACTTTCATAATGCTGG-3′ 2′-O-methoxyethyl-modified oligonucleotide with phosphorothioate backbone and all 5-methyl cytosines; nusinersen variant with 2-nucleotide extension (antisense eA*eT*eT*e[5mC]*eA*e[5mC]*eT*eT*eT*e[5mC]*eA*eT*eA*eA*eT*eG*e[5mC]*eT*eG*eG),RNAPII accumulation on the SMN2 transgene in liver and brain,[1],RNAPII accumulation
same,H3K9 dimethylation on the SMN2 transgene in liver and brain,[2],higher H3K9 dimethylation
same,"H3K9 dimethylation in control genes (same TAD: SERF1A; outside TAD: MYOD, GAPDH)",[3],neither ASO1 nor ASO2 promoted H3K9 dimethylation
same,H3K27 trimethylation over the SMN2 gene,[4],not affected
